Measured values published in ChEMBL document CHEMBL4364251, “Design, synthesis and biological evaluation of new quinoline derivatives as potential antitumor agents” (Eur J Med Chem, 2019).
pIC50: −log10 of the molar value. Active and inactive are the calls of the source. The calls are words filed in the database; no cut-off is given here.

Experiments:
HCT-116 [1] = assay: Induction of apoptosis in human HCT116 cells assessed as late apoptotic cells at 4 uM incubated for 24 hrs in presence of pan-caspase inhibitor z-VAD-FMK by annexin-V-FITC/PI staining based FACS analysis (reference value: 6.04%); assay type: functional
HCT-116 [2] = assay: Induction of apoptosis in human HCT116 cells assessed as necrotic cells at 4 uM incubated for 24 hrs by annexin-V-FITC/PI staining based FACS analysis (reference value: 0.71 to 2.26%); assay type: functional
HCT-116 [3] = assay: Induction of apoptosis in human HCT116 cells assessed as early apoptotic cells at 8 uM incubated for 24 hrs in presence of pan-caspase inhibitor z-VAD-FMK by annexin-V-FITC/PI staining based FACS analysis (reference value: 8.08%); assay type: functional
RKO = assay: Antiproliferative activity against human RKO cells incubated for 48 hrs by MTT assay; assay type: functional, cell-based
A2780 = assay: Antiproliferative activity against human A2780 cells incubated for 48 hrs by MTT assay; assay type: functional, cell-based; conditions: A2780, 48 h
A549 = assay: Antiproliferative activity against human A549 cells incubated for 48 hrs by MTT assay; assay type: functional, cell-based; conditions: A549, 48 h
HCT-116 [4] = assay: Induction of morphological changes in human HCT116 cells assessed as cell shrinkage at 4 to 10 uM incubated for 24 hrs by phase-contrast microscopic method; assay type: functional, cell-based
HCT-116 [5] = assay: Induction of apoptosis in human HCT116 cells assessed as viable cells at 4 uM incubated for 24 hrs by annexin-V-FITC/PI staining based FACS analysis (reference value: 94.35 to 94.43%); assay type: functional; conditions: HCT-116, 24 h, read-out: Activity
HCT-116 [6] = assay: Induction of autophagy in human HCT116 cells assessed as increase in LC3B-2 protein expression level at 6 uM by Western blot analysis; assay type: functional, cell-based; conditions: TDE = time-dependent effect
HCT-116 [7] = assay: Induction of autophagy in human HCT116 cells expressed with LC3B-EGFP-mCheery assessed as LC3 assembly on membrane of autophagosome incubated for 24 hrs by DAPI staining based confocal microscopic method; assay type: functional, cell-based
HCT-116 [8] = assay: Induction of autophagy in human HCT116 cells assessed as decrease in ATG5 protein expression level incubated for 24 hrs by Western blot analysis; assay type: functional, cell-based
HCT-116 [9] = assay: Induction of autophagy in human HCT116 cells assessed as decrease in ATG7 protein expression level incubated for 24 hrs by Western blot analysis; assay type: functional, cell-based
HCT-116 [10] = assay: Induction of autophagy in human HCT116 cells deficient in ATG5 assessed as increase in LC3B-2 protein expression level at 4 to 8 uM by Western blot analysis; assay type: functional, cell-based
HCT-116 [11] = assay: Induction of apoptosis in human HCT116 cells deficient in ATG7 assessed as viable cells at 8 uM incubated for 24 hrs by annexin-V-FITC/PI staining based FACS analysis (reference value: 85.27%); assay type: functional; conditions: HCT-116, 24 h, read-out: Activity
Mus musculus = assay: Antitumour activity against mouse […] cells implanted in BALB/c mouse assessed as decrease in tumour volume at 80 mg/kg administered once every three days for 21 days post tumour implantation and measured at day 13 by caliper method; assay type: functional, organism-based
[12] = Toxicity in BALB/c mouse xenografted with mouse […] cells at 80 mg/kg administrated once every three days for 21 days; assay type: organism-based; conditions: in vivo, 504 h

pIC50 (A2780): 5.46
pIC50 (A549): 5.09
SMILES: COc1cccc(Nc2ccnc3cc(OCCCc4ccccc4)ccc23)c1
Activity (HCT-116 [1]): 8.17%
Activity (HCT-116 [2]): 0.95%
Activity (HCT-116 [3]): 19.42%
pIC50 (RKO): 5.44
Activity (HCT-116 [4]): Active
viability at 4 µM (HCT-116 [5]): 75.4%
Activity (HCT-116 [6]): Tde
Activity (HCT-116 [7]): Dose-dependent effect
Activity (HCT-116 [8]): Dose-dependent effect
Activity (HCT-116 [9]): Dose-dependent effect
Activity (HCT-116 [10]): inactive
viability at 8 µM (HCT-116 [11]): 76.7%
Activity (Mus musculus): Active
Activity [12]: Non-Toxic
